Assay results reported in PubChem BioAssay (NCI).
Several values for one entry are separate records, joined by “and”; a condition that tells them apart may be missing. Equal values may be shown once.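 Following 48 hours of exposure in 96-well plates, responses at five concentrations were used to interpolate endpoints linearly. GI50: concentration for 50% inhibition of growth. TGI is the concentration that stops growth completely.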

Columns and labels:
Experiment in all cases: growth of human tumour cells (NCI), 48 h
[1] = system: M14 melanoma
[2] = system: OVCAR-4 ovarian
[3] = system: UACC-257 melanoma
[4] = system: ACHN renal
[5] = system: NCI-H460 lung
[6] = system: HCT-15 colon
[7] = system: SF-295 CNS
[8] = system: HCT-116 colon
[9] = system: SK-OV-3 ovarian
[10] = system: SW-620 colon

Row | SMILES | GI50 [1] [µM] | TGI [1] | GI50 [2] [µM] | TGI [2] | GI50 [3] [µM] | TGI [3] | GI50 [4] [µM] | TGI [4] | GI50 [5] [µM] | TGI [5] | GI50 [6] [µM] | TGI [6] | GI50 [7] [µM] | TGI [7] | GI50 [8] [µM] | TGI [8] [µM] | GI50 [9] [µM] | TGI [9] [µM] | GI50 [10] [µM] | TGI [10]
1 | CC(C)(C)n1cc(-c2ccnc(NCCCNS(=O)(=O)c3ccc(Br)cc3)c2)c(-c2cccc(O)c2)n1 | 1.78 | 3.29 µM | 1.91 | 3.91 µM | 2.01 | 4.33 µM | 1.99 | 3.89 µM | 1.99 | 3.99 µM | 1.48 | 3.17 µM | 1.71 | 3.25 µM | 1.31 | 2.6 | 2.53 | 6.26 | 1.83 | 3.63 µM
2 | CC(=O)c1cc(-c2ccccc2N)n(-c2ccc3c(c2)OCO3)c1C | 0.279 | 75 µM | 0.924 | > 100 µM | 27.3 | > 100 µM | 0.398 | > 100 µM | 0.169 | 13.2 µM | 0.296 | > 100 µM | 0.295 | 45.7 µM | 0.257 | 15.9 | 0.292 | 45.3 | 0.184 | > 100 µM
3 | CCOC(=O)Cc1csc(N=Nc2c(O)[nH]c3ccccc23)n1 | – | > 100 µM | – | > 100 µM | – | > 100 µM | – | > 100 µM | – | > 100 µM | – | > 100 µM | – | > 100 µM | – | > 100 | – | > 100 | – | > 100 µM
4 | CCCCNC(=O)Oc1ccc(/C(=C(/CC)Cc2ccccc2)c2ccc(OCCN3CCCCCC3)cc2)cc1 | 17.7 | 33.9 µM | 19.2 | 51.3 µM | 19.8 | 40.2 µM | 18.6 | 41.6 µM | 18.6 | 33.8 µM | 16.4 | 36.3 µM | 18.3 | 38.4 µM | 15.6 | 29 | > 100 | > 100 | 20.5 | 42.5 µM
5 | CN(C)CCCc1c2ccccc2nc2ccc(Cl)cc12 | – | 27.8 µM | – | 56.1 µM | – | 26.4 µM | – | 33.6 µM | – | 25.3 µM | – | 93.7 µM | – | 30.9 µM | – | 25.4 | – | 41.7 | – | 98.4 µM
6 | CC1=C(/C=C/C(C)=C/C=C/C(C)=C/C=C/C=C(C)/C=C/C=C(C)/C=C/C2=C(C)C(=O)C(O)CC2(C)C)C(C)(C)CC(O)C1=O (stereo not given) | – | > 100 µM | – | > 100 µM | – | > 100 µM | – | > 100 µM | – | > 100 µM | – | > 100 µM | – | > 100 µM | – | > 100 | – | > 100 | – | > 100 µM
7 | S=P(N1CCCC1)(N1CC1)N1CC1 | – | > 100 µM | – | > 100 µM | – | > 100 µM | – | > 100 µM | – | > 100 µM | – | > 100 µM | – | > 100 µM | – | > 100 | – | > 100 | – | > 100 µM
8 | COc1ccc(N2C(=O)C3c4[nH]c5ccccc5c4C4CCCCCCC4C3C2=O)cc1 (stereo not given) | – | 37.4 µM | – | 33.2 µM | – | > 100 µM | – | 18.7 µM | – | 27.5 µM | – | 27 µM | – | 26 µM | – | 15.3 | – | 33.2 | – | 34.1 µM
9 | NNS(=O)(=O)c1cc(C(=O)O)cc(C(=O)O)c1 | – | > 100 µM | – | > 100 µM | – | > 100 µM | – | > 100 µM | – | > 100 µM | – | > 100 µM | – | > 100 µM | – | > 100 | – | > 100 | – | > 100 µM
10 | Cc1c(C(=O)CC(=O)C(=O)Nc2cc(Cl)ccc2Cl)[n+](=O)c2ccccc2n1[O-] | – | 64.4 µM | – | > 100 µM | – | > 100 µM | – | > 100 µM | – | 99.5 µM | – | 90.2 µM | – | > 100 µM | – | > 100 | – | > 100 | – | > 100 µM
11 | Oc1c(CN2CCCC2)cc(CSCc2ccccc2)c2cccnc12 | 0.397 | 2.59 µM | 0.456 | 2.47 µM | 2.14 | 7.03 µM | 0.291 | 10.2 µM | 0.498 | 2.83 µM | 0.0612 | 1.85 µM | 2.19 | 8.13 µM | 0.694 | 10.1 | 0.666 | 2.82 | 0.797 | 11.2 µM
12 | COc1cc2c(c(OC)c1OC)-c1ccc(O)c(=O)cc1[C@@H](NC(C)=O)CC2 | 9.54 | 60.7 µM and 78.2 µM | 3.64 | > 100 µM and 66.1 µM | 4.34 | 33.3 µM and 77.1 µM | 5.61 | > 100 µM and 44.5 µM | 3.9 | > 100 µM and 28.6 µM | 5.04 | > 100 µM and 28 µM | 5.45 | > 100 µM and 97.3 µM | 4.23 | > 100 | 11 | > 100 | 7 | > 100 µM and 82.5 µM
13 | Clc1ccc2ns[s+]c2c1 | – | > 100 µM | – | > 100 µM | – | > 100 µM | – | > 94.3 µM | – | > 100 µM | – | > 100 µM | – | > 100 µM | – | > 100 | – | > 100 | – | > 100 µM
14 | CC(C(=O)O)c1ccc(-c2ccccc2)c(F)c1 (stereo not given) | – | > 100 µM | – | > 100 µM | – | > 100 µM | – | > 100 µM | – | > 100 µM | – | > 100 µM | – | > 100 µM | – | > 100 | – | > 100 | – | > 100 µM
15 | CCCCN(CCCC)CCc1c(C)cc(C)c(CCN(CCCC)CCCC)c1O | 3.15 | 20.8 µM | 3.13 | > 100 µM | 2.37 | 7.44 µM | 3.47 | > 100 µM | 2.91 | 9.59 µM | 3.06 | 13 µM | 2.2 | 6.97 µM | 1.87 | 8.34 | 2.68 | 8.53 | 2.88 | > 100 µM
16 | CCC[CH2][Sn]1([CH2]CCC)[O]C(=O)c2ccc(N)cc2[O]1 | 0.576 | 2.18 µM | 1.29 | 2.59 µM | 0.548 | 2.11 µM | 0.655 | 1.92 µM | 1.73 | 4.21 µM | 0.46 | 2.21 µM | 1.41 | 2.76 µM | 0.965 | 2.19 | 1.34 | 2.92 | 0.224 | 1.09 µM
17 | COC(=O)[C@H]1[C@H]2C[C@@H]3c4[nH]c5cc(OC)ccc5c4CCN3C[C@H]2C[C@@H](OC(=O)/C=C/c2cc(OC)c(OC)c(OC)c2)[C@@H]1OC | 6.24 | 20 µM | 3.39 | 11.2 µM | 18.4 | 68.1 µM | 4.05 | 21.5 µM | 4.82 | > 100 µM | 4.32 | > 100 µM | 5.54 | 24.9 µM | 3.18 | 9.57 | 15.4 | 32.3 | 8.47 | > 100 µM
18 | O=C(CSc1nc(-c2ccccc2)c(-c2ccccc2)[nH]1)NNC(=S)Nc1ccccc1 | – | > 100 µM | – | > 100 µM | – | > 100 µM | – | > 100 µM | – | > 100 µM | – | > 100 µM | – | > 100 µM | – | > 100 | – | > 100 | – | > 100 µM
19 | COc1c(Sc2ccccc2)cc(Sc2ccccc2)c2cccnc12 | – | > 100 µM | – | 61.9 µM | – | 41.1 µM | – | > 100 µM | – | 54.5 µM | – | 49.3 µM | – | 78.6 µM | – | > 100 | – | > 100 | – | > 100 µM
20 | [N-]=[N+]=CC(=O)COC(=O)c1ccccc1 | – | > 100 µM | – | > 100 µM | – | > 100 µM | – | > 100 µM | – | > 100 µM | – | > 100 µM | – | > 100 µM | – | > 100 | – | > 100 | – | > 100 µM
21 | CCOC(=O)Nc1nc2cc(OCC)ccc2s1 | 8.94 | > 100 µM | > 100 | > 100 µM | > 100 | > 100 µM | > 100 | > 100 µM | 8.02 | > 100 µM | 4.8 | > 100 µM | > 100 | > 100 µM | 6.82 | > 100 | > 100 | > 100 | 4.74 | > 100 µM
22 | CN1c2ccccc2S(=O)(=O)n2c(CCc3ccccc3)nnc21 | – | > 100 µM | – | > 100 µM | – | > 100 µM | – | > 100 µM | – | > 100 µM | – | > 100 µM | – | > 100 µM | – | > 100 | – | > 100 | – | > 100 µM
23 | O=C(Nc1ccc(Br)cc1)Nc1nn(C(=O)Nc2ccc(Br)cc2)c2ccccc12 | > 70.8 | > 100 µM | 22.6 | > 66.8 µM | > 77.6 | > 100 µM | 61.9 | > 100 µM | 34.1 | > 100 µM | > 74.2 | > 100 µM | 18 | 66.1 µM | 16.9 | > 100 | 16.9 | 54 | > 38.6 | > 100 µM
24 | COc1cc2c3c(c1OC)C1(C=CC(=O)C=C1)CC3NCC2 (stereo not given) | – | > 100 µM | – | > 100 µM | – | > 100 µM | – | > 100 µM | – | > 100 µM | – | > 100 µM | – | > 100 µM | – | > 100 | – | > 100 | – | > 100 µM
25 | CCCCCCCCCCCCCC(=O)NCC(OCC)OCC | – | > 100 µM | – | > 100 µM | – | > 100 µM | – | > 100 µM | – | > 100 µM | – | > 100 µM | – | > 100 µM | – | > 100 | – | > 100 | – | > 100 µM
